# Measured values reported in patent publication US7662810B2, “2-arylmethylazetidine carbapenem derivatives and preparation thereof” (Korea Research Institute of Chemical Technology, priority 2004, dated 2010).
# Tests used:
# [1] = system: Staphylococcus aureus 293; experiment: Measurement of Minimum Inhibitory Concentration (MIC), QRS; format: cell-based; details: QRS, Staphylococcus aureus 293
# Protocol: (§1) The antibacterial activities of the compounds of the present invention prepared in the above Examples against Gram-positive and Gram-negative bacteria, MRSA and QRS were tested as follows.
# (§2) Respective bacterial strains were inoculated into 3 ml of Fleisch extract broth (beef extract 1%, peptone 1%, NaCl 0.3%, Na2HPO4.12H2O 0.2%, pH 7.4-7.5. 10% horse serum was supplemented for Streptococcus pyogenes and S. facium) and cultured on a shaking incubator at 37° C. for 18 hours. About 10^4 CFU/spot of the cultured bacterial strains were inoculated onto Müller-Hinton agar plates containing serial double dilutions (final concentration of 0.002 to 100 μg/ml) of a test compound employing an automatic inoculator (Dynatech, USA), and incubated at 37° C. for 18 hours. When the incubation was completed, the minimum inhibitory concentration was determined. Meropenem (Yuhan corporation, Korea) and vancomycin (Cj Inco., Korea) were used as standard antibiotics, respectively.
# [2] = system: Staphylococcus aureus 241; experiment: as above; format: cell-based; details: QRS, Staphylococcus aureus 241
# Protocol: as §1, §2
# [3] = system: Staphylococcus epidermidis 291; experiment: as above; format: cell-based; details: QRS, Staphylococcus epidermidis 291
# Protocol: as §1, §2
# [4] = system: Staphylococcus epidermidis 178; experiment: as above; format: cell-based; details: QRS, Staphylococcus epidermidis 178
# Protocol: as §1, §2
# [5] = system: Staphylococcus aureus 179; experiment: as above; format: cell-based; details: QRS, Staphylococcus aureus 179
# Protocol: as §1, §2
# [6] = molecular target: T1, Dihydropeptidase-1 (DHP-1) (Sus scrofa, UniProt P22412)
# T1 sequence (P22412 17-384): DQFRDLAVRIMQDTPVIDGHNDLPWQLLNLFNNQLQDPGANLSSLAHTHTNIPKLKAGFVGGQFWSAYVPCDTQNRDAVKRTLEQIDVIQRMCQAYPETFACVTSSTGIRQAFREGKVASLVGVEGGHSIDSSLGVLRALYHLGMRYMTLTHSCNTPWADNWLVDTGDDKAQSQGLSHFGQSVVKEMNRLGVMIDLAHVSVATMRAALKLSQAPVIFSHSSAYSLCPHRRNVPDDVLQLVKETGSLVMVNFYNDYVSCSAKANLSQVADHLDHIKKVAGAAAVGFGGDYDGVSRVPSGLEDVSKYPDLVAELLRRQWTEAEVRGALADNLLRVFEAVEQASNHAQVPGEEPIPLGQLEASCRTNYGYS
# Protocol: (§3) The rate of degradation of the inventive compounds by the action of DHP-1 enzyme extracted from hog kidney was determined as follow.
# (§4) 0.2 unit of the enzyme was allowed to react with the above solution at 30° C., and the absorbance at 299 nm of the remaining medicament was measured to determine the degradation rate. The absorbance was measured at 0, 0.5, 1, 2 and 4 hour points, and T1/2, the time when the concentration of the medicament become the half, was obtained by regression analysis.
# [7] = system: Staphylococcus faecium MD 8b; experiment: Measurement of Minimum Inhibitory Concentration (MIC); format: cell-based; details: Staphylococcus faecium MD 8b
# Protocol: as §1, §2
# [8] = system: Salmonella typhimurium 179; experiment: as above; format: cell-based; details: Salmonella typhimurium 179
# Protocol: as §1, §2
# Escherichia coli DC 2 = experiment: as above; format: cell-based
# Protocol: as §1, §2
# [9] = system: Enterobacter cloacae 1321 E; experiment: as above; format: cell-based
# Protocol: as §1, §2
# Escherichia coli TEM = experiment: as above; format: cell-based; details: Escherichia coli TEM
# Protocol: as §1, §2
# [10] = system: Staphylococcus aureus 285; experiment: as above; format: cell-based
# Protocol: as §1, §2
# [11] = system: Staphylococcus aureus 503; experiment: as above; format: cell-based
# Protocol: as §1, §2
# Escherichia coli DC 0 = experiment: as above; format: cell-based
# Protocol: as §1, §2
# [12] = system: Enterobacter cloacae P 99; experiment: as above; format: cell-based
# Protocol: as §1, §2
# [13] = system: Staphylococcus pyogenes 77A; experiment: as above; format: cell-based; details: Staphylococcus pyogenes 77A
# Protocol: as §1, §2
# Escherichia coli 1507 E = experiment: as above; format: cell-based
# Protocol: as §1, §2
# [14] = system: Staphylococcus pyogenes 308A; experiment: as above; format: cell-based; details: Staphylococcus pyogenes 308A
# Protocol: as §1, §2
# [15] = system: Klebsiella oxytoca 1082 E; experiment: as above; format: cell-based
# Protocol: as §1, §2
# [16] = system: Klebsiella aerogenes 1522 E; experiment: as above; format: cell-based
# Protocol: as §1, §2
# Escherichia coli 078 = experiment: as above; format: cell-based
# Protocol: as §1, §2
# [17] = system: Staphylococcus aureus 256E; experiment: Measurement of Minimum Inhibitory Concentration (MIC), MRSA; format: cell-based; details: Staphylococcus aureus 256E
# Protocol: as §1, §2
# [18] = system: Staphylococcus aureus 88E; experiment: as above; format: cell-based; details: Staphylococcus aureus 88E
# Protocol: as §1, §2
# [19] = system: Staphylococcus aureus 694E; experiment: as above; format: cell-based; details: Staphylococcus aureus 694E
# Protocol: as §1, §2
# [20] = system: Staphylococcus aureus 121E; experiment: as above; format: cell-based; details: Staphylococcus aureus 121E
# Protocol: as §1, §2
# [21] = system: Staphylococcus aureus 208E; experiment: as above; format: cell-based; details: Staphylococcus aureus 208E
# Protocol: as §1, §2
# [22] = system: Staphylococcus aureus 692E; experiment: as above; format: cell-based; details: Staphylococcus aureus 692E
# Protocol: as §1, §2
# [23] = system: Staphylococcus aureus 695E; experiment: as above; format: cell-based; details: Staphylococcus aureus 695E
# Protocol: as §1, §2
# [24] = system: Staphylococcus aureus 690E; experiment: as above; format: cell-based; details: Staphylococcus aureus 690E
# Protocol: as §1, §2
# [25] = system: Staphylococcus aureus 693E; experiment: as above; format: cell-based; details: Staphylococcus aureus 693E
# Protocol: as §1, §2
# [26] = system: Staphylococcus aureus 697E; experiment: as above; format: cell-based; details: Staphylococcus aureus 697E
# Protocol: as §1, §2
# [27] = Test of Pharmacokinetics in Animals (mice); format: in vivo; details: mouse, in vivo, 40 mg/kg
# Protocol: The pharmacokinetics of the carbapenem derivatives of the present invention was determined using mice. […] Standard antibiotic samples were prepared by serial two-fold dilution with control blood. […] PK (pharmacokinetic) change indicators (AUC, Tmax, Cmax and T1/2) of the test compound concentration remaining in the mouse blood over time were assayed over a set period.
# [28] = molecular target: T1, Dihydropeptidase-1 (DHP-1); experiment: Sensitivity Assay Against Dihydropeptidase-1 (DHP-1); details: pig, DHP-1 enzyme extracted from hog kidney
# Protocol: as §3, §4
smiles,measurement,setting,value
"C[C@@H](O)[C@H]1C(=O)N2C(C(=O)[O-])=C(SC3CN(Cc4ccccc4)C3)[C@H](C)[C@H]12.[K+] [Exam. 13, Potassium(1R,5S,6S)-2-(1-benzyl-azetidine-3-yl-thio)-6-[(1R)-1-hydroxylethyl]-1-methylcarbapen-2-em-3-carboxylate]",MIC,[1],0.098 mg/L
same,MIC,[2],0.049 mg/L
same,MIC,[3],0.391 mg/L
same,MIC,[4],0.391 mg/L
same,MIC,[5],0.049 mg/L
same,T1/2 (time when the concentration of the medicament become the half),[6],19.28
same,MIC,[7],1.563 mg/L
same,MIC,[8],0.049 mg/L
same,MIC,Escherichia coli DC 2,0.025 mg/L
same,MIC,[9],0.049 mg/L
same,MIC,Escherichia coli TEM,0.049 mg/L
same,MIC,[10],0.025 mg/L
same,MIC,[11],0.013 mg/L
same,MIC,Escherichia coli DC 0,0.098 mg/L
same,MIC,[12],0.098 mg/L
same,MIC,[13],0.002 mg/L
same,MIC,Escherichia coli 1507 E,0.049 mg/L
same,MIC,[14],0.002 mg/L
same,MIC,[15],0.049 mg/L
same,MIC,[16],0.098 mg/L
same,MIC,Escherichia coli 078,0.049 mg/L
same,MIC,[17],0.013 mg/L
same,MIC,[18],0.025 mg/L
same,MIC,[19],1.563 mg/L
same,MIC,[20],0.025 mg/L
same,MIC,[21],0.049 mg/L
same,MIC,[22],0.025 mg/L
same,MIC,[23],0.391 mg/L
same,MIC,[24],0.391 mg/L
same,MIC,[25],3.125 mg/L
same,MIC,[26],0.025 mg/L
same,"AUC, times higher than meropenem",[27],10 to 12 times
same,increase in T1/2 than meropenem,[27],more than 2 times
same,AUC (area under blood-medicament concentration curve till 24 hours from administration),[27]; po,1.73 µg·h/mL
same,Cmax,[27]; po,1.06 µg/mL
same,T1/2 (half time of blood-medicament concentration),[27]; po,48.6 min
same,Tmax,[27]; po,29.4 min
same,absorption through the oral route,[27]; po,absorbed through the oral route to significant extents
same,AUC (area under blood-medicament concentration curve till 24 hours from administration),[27]; sc,94.76 µg·h/mL
same,Cmax,[27]; sc,86.83 µg/mL
same,T1/2 (half time of blood-medicament concentration),[27]; sc,55.2 min
same,Tmax,[27]; sc,13.2 min
"C[C@@H](O)[C@H]1C(=O)N2C(C(=O)[O-])=C(SC3CN(Cc4ccc(F)cc4)C3)[C@H](C)[C@H]12.[K+] [Exam. 19, Potassium(1R,5S,6S)-2-[1-(4-fluorobenzyl)-azetidine-3-yl-thio]-6-[(1R)-1-hydroxylethyl]-1-methylcarbapen-2-em-3-carboxylate]",MIC,[1],0.195 mg/L
same,MIC,[2],0.049 mg/L
same,MIC,[3],0.391 mg/L
same,MIC,[4],0.195 mg/L
same,MIC,[5],0.049 mg/L
same,T1/2 (time when the concentration of the medicament become the half),[6],28.16
same,MIC,[7],1.563 mg/L
same,MIC,[8],0.049 mg/L
same,MIC,Escherichia coli DC 2,0.025 mg/L
same,MIC,[9],0.049 mg/L
same,MIC,Escherichia coli TEM,0.049 mg/L
same,MIC,[10],0.025 mg/L
same,MIC,[11],0.013 mg/L
same,MIC,Escherichia coli DC 0,0.098 mg/L
same,MIC,[12],0.098 mg/L
same,MIC,[13],0.002 mg/L
same,MIC,Escherichia coli 1507 E,0.049 mg/L
same,MIC,[14],0.002 mg/L
same,MIC,[15],0.049 mg/L
same,MIC,[16],0.098 mg/L
same,MIC,Escherichia coli 078,0.025 mg/L
same,MIC,[17],0.025 mg/L
same,MIC,[18],0.049 mg/L
same,MIC,[19],3.125 mg/L
same,MIC,[20],0.049 mg/L
same,MIC,[21],0.025 mg/L
same,MIC,[22],0.025 mg/L
same,MIC,[23],0.195 mg/L
same,MIC,[24],0.391 mg/L
same,MIC,[25],3.125 mg/L
same,MIC,[26],0.049 mg/L
"C[C@@H](O)[C@H]1C(=O)N2C(C(=O)[O-])=C(SC3CN([C@@H](C)c4ccccc4)C3)[C@H](C)[C@H]12.[K+] [Exam. 22, Potassium(1R,5S,6S)-2-{1-[(1S)-1-phenylethyl]-azetidine-3-yl-thio}-6-[(R)-1-hydroxylethyl]-1-methylcarbapen-2-em-3-carboxylate]",MIC,[1],0.195 mg/L
same,MIC,[2],0.049 mg/L
same,MIC,[3],0.391 mg/L
same,MIC,[4],0.195 mg/L
same,MIC,[5],0.049 mg/L
same,T1/2 (time when the concentration of the medicament become the half),[6],65.99
same,stability against hydrolysis by DHP-1 (in words),[6],very stable
same,MIC,[7],1.563 mg/L
same,MIC,[8],0.049 mg/L
same,MIC,Escherichia coli DC 2,0.025 mg/L
same,MIC,[9],0.098 mg/L
same,MIC,Escherichia coli TEM,0.391 mg/L
same,MIC,[10],0.025 mg/L
same,MIC,[11],0.013 mg/L
same,MIC,Escherichia coli DC 0,0.391 mg/L
same,MIC,[12],0.391 mg/L
same,MIC,[13],0.002 mg/L
same,MIC,Escherichia coli 1507 E,0.195 mg/L
same,MIC,[14],0.002 mg/L
same,MIC,[15],0.098 mg/L
same,MIC,[16],0.391 mg/L
same,MIC,Escherichia coli 078,0.098 mg/L
same,MIC,[17],0.025 mg/L
same,MIC,[18],0.025 mg/L
same,MIC,[19],0.049 mg/L
same,MIC,[20],0.049 mg/L
same,MIC,[21],0.025 mg/L
same,MIC,[22],0.025 mg/L
same,MIC,[23],0.098 mg/L
same,MIC,[24],0.195 mg/L
same,MIC,[25],3.125 mg/L
same,MIC,[26],0.025 mg/L
"C[C@@H](O)[C@H]1C(=O)N2C(C(=O)O)=C(SCCN=CN)C[C@H]12 [Imipenem, imipenem]",half-life at 500 μg/ml,[28],143 min
